# Experimental data published in the supplement of paper PMC7801607.
# Test system: Plasmodium falciparum Dd2 asexual blood stage
row,IC50 [µM],SMILES
1,> 5,O=C(O)CCNC(=O)c1ccccc1
2,> 5,N[C@H]1CCC[C@H]1C(=O)O
3,> 5,Cc1nc(Nc2ccc(F)cc2)nc(N2CCc3ccccc3C2C)c1C (stereo not drawn)
4,> 5,COc1c(NC(=O)[C@H]2CC[C@@H](COc3ccc([N+](=O)[O-])cc3)CC2)c(F)cc2c(=O)c(C(=O)O)cn(C3CC3)c12
5,> 5,Clc1ccc(COC(Cn2ccnc2)c2ccc(Cl)cc2Cl)c(Cl)c1 (stereo not drawn)
6,> 5,CCOC(=O)N1CCN(c2ccc(Cl)cc2)CC1
7,> 5,CCCNc1ccc(S(=O)(=O)Nc2cc(C)on2)cc1
8,> 5,CC(C)(C)c1cc(C(=O)/C(C#N)=N/Nc2cccc(Cl)c2)no1
9,> 5,CC[N+]1(C/C2=C/CCCCCC2)CCC(NC(=O)C2c3cc(Cl)ccc3Oc3ccc(Cl)cc32)CC1 (stereo not drawn)
10,> 5,COc1ccc(NC(=O)CC2Sc3ncnn3C2=O)cc1 (stereo not drawn)
11,> 5,CC(C)c1cc2c(cc1S(=O)(=O)O)[C@@]1(C)CCC[C@@](C)(C(=O)O)[C@@H]1CC2
12,> 5,CCc1cc(O)c(Oc2cccnc2N)cc1F
13,> 5,Nc1nc(O)c2ncn(COC(CO)CO)c2n1
14,> 5,CSC[C@H]1CN(Cc2c[nH]c3c(N)ncnc23)C[C@@H]1O
15,> 5,Cc1ncc([N+](=O)[O-])n1CC(O)CN1CCOCC1 (stereo not drawn)
16,> 5,c1ccc(-c2nnc3c4ccccc4c(N4CCNCC4)nn23)cc1
17,> 5,CCCCCCCCC(CP(=O)(O)C(C)N)C(=O)O (stereo not drawn)
18,> 5,Cc1[nH]c2ccccc2c1CC(=O)N[C@@H](Cc1ccccc1)C(=O)N(C)c1ccccc1
19,> 5,COc1ccc(NS(=O)(=O)c2ccc(Cl)s2)cn1
20,> 5,Nc1ccc(-c2nc3cc(C(F)(F)F)ccc3n2C23CC4CC(CC(C4)C2)C3)cc1
21,> 5,N[C@@H]1CN(c2c(F)cc3c(=O)c(C(=O)O)cn([C@@H]4C[C@@H]4F)c3c2Cl)CC12CC2

row,IC50 [µM],SMILES
1,> 5,CCc1oc2ccccc2c1C(=O)c1ccc(O)cc1
2,> 5,c1cc(CN2CCCNCCNCCCNCC2)ccc1CN1CCCNCCNCCCNCC1
3,> 5,O=C1[C@H](CC[C@H](O)c2ccc(F)cc2)[C@@H](c2ccc(O)cc2)N1c1ccc(F)cc1
4,> 5,O=C(Nc1ccc(-c2ccccc2)cc1)C1=C(O)C(Cc2ccccc2)OC1=O (stereo not drawn)
5,> 5,COc1ccc(OCc2ccc(COc3c(Cl)cccc3Cl)cc2)c(Cl)c1
6,> 5,O=C(Cn1cnc2ccccc2c1=O)Nc1ccccc1
7,> 5,CSc1ccc2c(c1)C(N1CCN(C)CC1)Cc1ccccc1S2 (stereo not drawn)
8,> 5,NNC(=O)c1ccncc1
9,> 5,C[C@H]1CC[C@@]2(O)C(C)(C)[C@@H]3CC[C@@]2(C)[C@H]1C3
10,> 5,N[C@H](CCC(=O)N[C@@H](Cc1c[nH]c2ccccc12)C(=O)O)C(=O)O
11,> 5,CCNC(=O)Nc1cn2c(-c3ncc(CC)cn3)cc(-c3cccnc3)cc2n1
12,> 5,O=c1ccc2ncc(=O)n3c2n1CC3CN1CCC(NCc2cc3c(cn2)OCCC3)CC1 (stereo not drawn)
13,> 5,O=C(NCCN1CCCCC1)c1cccc(C(F)(F)F)c1
14,> 5,CC[C@@H](CO)NCCN[C@@H](CC)CO
15,> 5,C/C(=N\NC(=O)C1CC1c1ccccc1)c1ccc(NC(=O)c2ccco2)cc1 (stereo not drawn)
16,> 5,COc1ccc2c(c1)cc(CNC(=O)c1cc3ccccc3o1)n2CC(=O)O
17,> 5,N#C/C(=C1/SC[C@H](c2ccc(Cl)cc2Cl)S1)n1ccnc1
18,> 5,CC(C)Oc1ccc(-n2cnc3cc(/C=C\c4ccc(C(C)(C)O)cc4)ccc32)cc1
19,> 5,O=C(N[C@H](CCS)C(=O)N[C@H](Cc1ccccc1)C(=O)O)c1cc2ccccc2[nH]1
20,> 5,CC(C)Nc1ncnc2c1cnn2-c1ccc(Cl)cc1
21,> 5,O=C(NC(=O)N1CCCc2ccccc21)c1cccc(Cl)c1

row,SMILES,IC50 [µM]
1,COc1cc(C(C)(C)CCCC(C)C)cc(OC)c1OC,> 5
